This note sets out measurements from PubChem BioAssay (NCI).

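Interpolation was linear, between the two tested concentrations surrounding the appropriate level; five concentrations were tested over 48 hours in 96-well plates. Abbreviation: GI50, concentration required for 50% inhibition of growth. TGI is the concentration that stops growth completely.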 A value given as a limit tells only on which side of the number the result lay.

What all share (test): NCI-60 cell line screen, 48 h
For experiment [1], the system named is A549 NSCLC.
Experiment [2] deals with HL-60(TB) leukemia.
Experiment [3] has as its system K-562 leukemia.
For experiment [4], the system named is MOLT-4 leukemia.
The test system of experiment [5] is NCI-H23 lung.
The test system of experiment [6] is RXF 393 renal.
The subject of experiment [7] is SF-295 CNS.
For experiment [8], the system named is BT-549 breast.
In experiment [9] the test system is NCI/ADR-RES ovarian.
Experiment [10] relates to MCF7 breast.

Regarding `COc1cc(/C=C/C(=N\NC(=O)c2ccccc2)c2sc(Nc3ccc(Cl)c(Cl)c3)nc2C)ccc1O`, the TGI in experiment [1] is over 100 µM; in experiment [2], 40 µM; in experiment [3], 95.9 µM; in experiment [4], 66.6 µM; in [5] it was 77.3 µM; in experiment [6], over 100 µM. The TGI in [7] was over 100 µM.
Take `CC(O)CN1C(=O)NC(Cc2ccccc2)C1=O` (stereo not drawn): the TGI in experiment [1], in experiment [2], in experiment [5], in experiment [6] and in experiment [7] was over 100 µM throughout.
As for `NS(=O)(=O)c1ccc(NC(=O)c2cccc3c(=O)c4ccccc4[nH]c23)cc1`, the TGI in experiment [1], in experiment [2], in [3], in experiment [4], in [5] and in experiment [7] was over 100 µM throughout.
Turning to `COc1cc(/C=C\c2ccc(O)cc2)cc(OC)c1OC`, the TGI in [1] is over 100 µM; in experiment [2], over 29.3 µM; in [3], over 100 µM; in [4], over 100 µM; in [6], over 25.1 µM; in experiment [7], 5.48 µM.
For the compound `Cc1ccc(-c2nc(C(Cl)Cl)n3nc(-c4ccccc4)cc3n2)cc1`, the GI50 is over 100 µM in experiment [8]; 1.07 µM in experiment [3]; over 100 µM in experiment [4]; 1.17 µM in experiment [5]; 0.476 µM in experiment [9]; 0.298 µM in experiment [6]. Besides, the TGI is over 100 µM in [8]; over 100 µM in experiment [3]; over 100 µM in experiment [4]; over 100 µM in experiment [5]; 3.76 µM in experiment [9]; 0.896 µM in experiment [6].
For `Clc1cc(Cl)c2c(Cl)cc(Cl)c3c2c1N=S=N3`, the TGI in experiment [1], in experiment [2], in experiment [3], in experiment [4], in experiment [5] and in experiment [6] was over 100 µM in each case. Further, the TGI in experiment [7] is over 100 µM.
Regarding `CC1(C)OC(=O)C=C([O-])O1.CC1(C)OC(=O)C=C([O-])O1.O=c1c(O)c(-c2ccc([O-])cc2[O-])oc2cc(O)cc(O)c12.[Ti+4]`, the TGI is over 100 µM in experiment [1]; over 100 µM in experiment [2]; over 100 µM in [3]; over 100 µM in [4]; 73.7 µM in experiment [5]; 93.3 µM in experiment [6]. In experiment [7], the TGI was over 100 µM. Moreover, the GI50 is 31.6 µM in experiment [4] and 36.7 µM in experiment [6].
As for `CC1(C)CCc2cc3c(cc2O1)OCCC3=O`, the TGI in experiment [1], in experiment [2], in [3], in experiment [4], in experiment [5] and in experiment [6] was over 100 µM in each case. In addition, the TGI in [7] was over 100 µM.
As to `O=C(Nc1ccc(S(=O)(=O)N[C@@H](C(=O)O)c2ccccc2)cc1)c1ccc(F)cc1`, the TGI in experiment [1], in [3], in experiment [4], in [5], in experiment [6] and in [7] was over 100 µM in each case.
Turning to `CN(C)C(=S)/N=c1\ss/c(=N\S(=O)(=O)c2ccccc2)n1-c1ccccc1`, the TGI in experiment [1], in [2], in [3], in experiment [4], in [5] and in experiment [6] was over 100 µM throughout. Besides, the TGI in [7] is over 100 µM.
In the case of `CCOc1cccc2nc3cccc(C(=O)NCCN(C)C)c3nc12`, the TGI in experiment [1] is over 100 µM; in experiment [3] it was 2.62 µM; in experiment [4], 0.746 µM; in experiment [5], 4.45 µM; in [6] it was 3.21 µM.
`COC(=O)NC/C=C\c1nc(CC/C=C\C(=O)OC2CC3CC(=O)O[C@@H](/C=C/CC(C)C)C[C@@H]4CCC(C)C(C[C@@H](OC)CC(C2)O3)O4)co1` (stereo partly drawn): the GI50 in experiment [8] was 9.93 µM; in [3] it was under 0.01 µM; in [10], under 0.01 µM; in experiment [5], under 0.01 µM; in experiment [9], 38.3 µM; in experiment [7], under 0.01 µM. Besides, the TGI in experiment [8] was over 100 µM; in experiment [3] it was 12.2 µM; in experiment [10] it was over 100 µM; in experiment [5], over 100 µM; in experiment [9], over 100 µM; in [7], 73.8 µM.
Take `N#Cc1c(N)c(C(=O)O)nn(-c2cccc(C(F)(F)F)c2)c1=O`: the TGI in experiment [1], in experiment [2], in experiment [3], in experiment [4], in experiment [5] and in [6] was over 100 µM throughout. For the same compound, the TGI in [7] was over 100 µM.
Turning to `CC1CCCC(C(=O)/C(=C/c2cccc(Cl)c2)C(=O)C(=O)O)C1` (stereo not drawn), the TGI in experiment [1] was over 100 µM; in experiment [2], 47.9 µM; in [3], 47.4 µM; in experiment [4] it was 49.8 µM; in [5], over 100 µM; in [7], over 100 µM.
`COc1ccc(C(=O)C(C(=O)CCC(=O)Nc2cccc(C(F)(F)F)c2)c2ccccc2)cc1` (stereo not drawn): the TGI in experiment [1], in [2], in experiment [3], in [4], in experiment [5] and in experiment [7] was over 100 µM each time.
In the case of `CC(=O)c1c(C)n([O-])c2cc(C)c(C)cc2[n+]1=O`, the TGI in experiment [1], in [2], in experiment [3], in experiment [4], in experiment [5] and in experiment [7] was over 100 µM each time.
As to `Clc1ccc(CNc2nc3ccccc3nc2-c2cccs2)c(Cl)c1`, the TGI in experiment [1], in experiment [2], in experiment [3], in experiment [4], in [5] and in experiment [6] was over 100 µM in each case. The compound further gave a TGI in [7] of over 100 µM.
As to `Oc1c2c(c(O)c3ccccc13)=N[C@@H](c1ccccc1)[C@H](c1ccccc1)N=2`, the TGI in experiment [1], in [2], in experiment [3], in experiment [4], in experiment [5] and in experiment [6] was over 100 µM in each case. In addition, in experiment [7], the TGI was over 100 µM.
